# Assay results reported in publication PMC8841438 (Clinical and Translational Science, 2021).
# Where two headings read alike, the source gives them in different places.
# Assays:
# MATE2K [1] = biological target: T1, MATE2K (Homo sapiens, UniProt Q86VL8); details: in vitro; cited from earlier work
# [2] = system: human colon carcinoma‐derived (Caco‐2) cells; details: no reference given; cited from earlier work
# bile salt export pump = details: in vitro; at clinically relevant concentrations; cited from earlier work
# [3] = system: organic anion transporting polypeptide 1B1; details: in vitro; cited from earlier work
# [4] = biological target: T2, organic cation transporter 2 (OCT2) (Homo sapiens, UniProt O15244); details: in vitro; cited from earlier work
# T2 sequence (O15244 1-555): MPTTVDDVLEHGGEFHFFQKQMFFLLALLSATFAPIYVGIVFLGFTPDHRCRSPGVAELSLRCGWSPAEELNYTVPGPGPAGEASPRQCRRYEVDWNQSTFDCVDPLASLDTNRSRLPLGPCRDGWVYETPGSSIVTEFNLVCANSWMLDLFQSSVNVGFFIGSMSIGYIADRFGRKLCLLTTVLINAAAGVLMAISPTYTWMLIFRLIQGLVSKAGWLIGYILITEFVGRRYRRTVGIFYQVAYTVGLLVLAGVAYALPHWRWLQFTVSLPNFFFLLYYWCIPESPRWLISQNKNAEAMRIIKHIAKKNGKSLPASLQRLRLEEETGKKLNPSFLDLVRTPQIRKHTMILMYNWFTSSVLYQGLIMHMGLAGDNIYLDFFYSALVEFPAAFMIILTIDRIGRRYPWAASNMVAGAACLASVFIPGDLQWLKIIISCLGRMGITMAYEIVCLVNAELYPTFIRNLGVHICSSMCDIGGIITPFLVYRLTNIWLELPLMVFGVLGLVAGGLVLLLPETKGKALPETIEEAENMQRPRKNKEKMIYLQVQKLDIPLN
# [5] = system: organic anion transporter 1; details: in vitro; at clinically relevant concentrations; cited from earlier work
# [6] = ulcerative colitis phase IIb/III, cited from earlier work
# [7] = assay type: in vivo, human
# [8] = system: breast cancer resistance protein; details: in vitro; at clinically relevant concentrations; cited from earlier work
# P‐glycoprotein = details: in vitro; cited from earlier work
# MATE1 = biological target: T3, MATE1 (Homo sapiens, UniProt Q96FL8); details: in vitro; cited from earlier work
# T3 sequence (Q96FL8 1-570): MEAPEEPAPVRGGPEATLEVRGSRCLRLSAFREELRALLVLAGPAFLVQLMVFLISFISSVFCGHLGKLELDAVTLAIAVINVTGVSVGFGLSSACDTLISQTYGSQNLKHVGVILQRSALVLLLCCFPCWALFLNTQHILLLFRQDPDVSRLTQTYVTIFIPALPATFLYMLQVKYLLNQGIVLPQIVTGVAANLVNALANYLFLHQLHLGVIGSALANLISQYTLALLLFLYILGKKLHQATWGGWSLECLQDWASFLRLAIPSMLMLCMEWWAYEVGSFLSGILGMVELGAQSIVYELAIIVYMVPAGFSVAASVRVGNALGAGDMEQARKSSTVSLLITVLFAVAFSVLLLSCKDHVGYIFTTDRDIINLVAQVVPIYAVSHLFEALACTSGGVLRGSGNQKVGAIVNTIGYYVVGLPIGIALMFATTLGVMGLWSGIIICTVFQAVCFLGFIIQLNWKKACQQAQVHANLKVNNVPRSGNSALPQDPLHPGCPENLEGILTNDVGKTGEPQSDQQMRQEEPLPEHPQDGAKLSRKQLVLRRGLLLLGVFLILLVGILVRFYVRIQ
# [9] = no reference given; cited from earlier work
# [10] = system: organic anion transporting polypeptide 1B3; details: in vitro; cited from earlier work
# [11] = system: organic anion transporter 4; details: in vitro; at clinically relevant concentrations; cited from earlier work
# P‐gp = details: in vitro; at clinically relevant concentrations; cited from earlier work
# [12] = assay type: in vivo, human; remark: listed apart in the source
# MATE2K [13] = biological target: T1, MATE2K; test: In vitro transporter inhibition: MATE2K; assay type: in vitro ADME; details: data on file at Gilead Sciences, Inc.
# [14] = system: carboxylesterase 2 (CES2); details: cited from earlier work
# [15] = cited from earlier work
# [16] = 200 mg and 100 mg once‐daily; patients with active rheumatoid arthritis; phase III; cited from earlier work
# Safety assessments = assay type: in vivo, human; details: for subjects with at least one graded laboratory abnormality: majority grade 1 or 2
# JAK1 = details: whole blood and cellular assays; cited from earlier work
# [17] = system: organic cation transporter 1; details: in vitro; at clinically relevant concentrations; cited from earlier work
# [18] = study 1, filgotinib 100 mg with itraconazole 200 mg vs alone
# [19] = study 1, filgotinib + itraconazole vs filgotinib alone
# [20] = study 2, filgotinib 200 mg after multiple doses of rifampin 600 mg vs alone
# [21] = study 2, filgotinib + rifampin vs filgotinib alone
# [22] = study 3, filgotinib treatment period
# T1 sequence (Q86VL8 1-566 isoform Q86VL8-3): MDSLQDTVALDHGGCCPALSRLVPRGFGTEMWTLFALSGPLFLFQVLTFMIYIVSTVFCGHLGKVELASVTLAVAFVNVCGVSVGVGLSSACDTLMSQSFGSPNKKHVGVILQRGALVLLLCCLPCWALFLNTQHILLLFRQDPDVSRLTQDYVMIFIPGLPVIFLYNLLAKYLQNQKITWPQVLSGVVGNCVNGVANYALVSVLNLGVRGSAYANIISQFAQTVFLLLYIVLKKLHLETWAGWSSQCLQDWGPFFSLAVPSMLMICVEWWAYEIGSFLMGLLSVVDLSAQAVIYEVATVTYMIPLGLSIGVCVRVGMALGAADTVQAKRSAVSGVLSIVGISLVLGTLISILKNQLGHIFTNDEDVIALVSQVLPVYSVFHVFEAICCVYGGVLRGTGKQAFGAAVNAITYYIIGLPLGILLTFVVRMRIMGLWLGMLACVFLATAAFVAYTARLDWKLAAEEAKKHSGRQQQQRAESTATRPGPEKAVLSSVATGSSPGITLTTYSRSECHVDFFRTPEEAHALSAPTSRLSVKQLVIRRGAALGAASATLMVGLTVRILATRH
smiles,measurement,setting,value
O=C(Nc1nc2cccc(-c3ccc(CN4CCS(=O)(=O)CC4)cc3)n2n1)C1CC1 [Filgotinib],inhibition of MATE2K,MATE2K [1],inhibited
same,efflux in Caco‐2 cells,[2],active efflux
same,inhibition of bile salt export pump,bile salt export pump,not inhibitors
same,inhibition of OATP1B1,[3],inhibited
same,inhibition of OCT2,[4],inhibited
same,inhibition of organic anion transporter 1,[5],not inhibitors
same,primary end point in the induction studies,[6]; 100 mg dose,did not meet the primary end point
same,primary end points (clinical remission at week 10 and week 58),[6]; 200 mg dose,met all the primary end points
same,Tmax,"[7]; human, plasma, oral",1 h
same,half-life,"[7]; human, plasma, oral",6.26 h
same,AUC(0-inf),"[7]; human, plasma, oral, 100 mg",2190 ng·h/mL
same,AUC(0-t),"[7]; human, plasma, oral, 100 mg",2170 ng·h/mL
same,Cmax,"[7]; human, plasma, oral, 100 mg",756 ng/mL
same,Tmax,"[7]; human, plasma, oral, 100 mg",1 h
same,half-life,"[7]; human, plasma, oral, 100 mg",7.4 h
same,increase in AUCinf by itraconazole,[7]; [18],45%
same,increase in C max by itraconazole,[7]; [18],64%
same,AUCinf %GLSM ratio (90% CI),[7]; [19],"145 (133, 157) %"
same,AUClast %GLSM ratio (90% CI),[7]; [19],"145 (133, 158) %"
same,C max %GLSM ratio (90% CI),[7]; [19],"164 (129, 208) %"
same,effect of itraconazole on pharmacokinetic parameters (in words),"[7]; study 1, filgotinib: Tmax, t1/2, GS‐829845: C max, AUCinf, T max, t 1/2",did not affect
same,CL/F,"[7]; study 1, single filgotinib 100 mg alone, fasting, mean (%CV), N = 13",48.6 (25.0) L/h
same,inhibition of breast cancer resistance protein,[8],not inhibitors
same,substrate of P‐glycoprotein,P‐glycoprotein,substrates
same,inhibition of MATE1,MATE1,inhibited
same,permeability (BCS),[9],high permeability
same,solubility (BCS),[9],low solubility
same,inhibition of OATP1B3,[10],inhibited
same,inhibition of organic anion transporter 4,[11],not inhibitors
same,inhibition of P‐gp,P‐gp,not inhibitors
same,Tmax,"[12]; human, plasma, oral",1.5 h
same,half-life,"[12]; human, plasma, oral",7.7 h
same,AUC(0-inf),"[12]; human, plasma, oral, 200 mg",6960 ng·h/mL
same,AUC(0-t),"[12]; human, plasma, oral, 200 mg",6980 ng·h/mL
same,Cmax,"[12]; human, plasma, oral, 200 mg",2190 ng/mL
same,Tmax,"[12]; human, plasma, oral, 200 mg",1 h
same,half-life,"[12]; human, plasma, oral, 200 mg",8.4 h
same,reduction in AUCinf by rifampin,[12]; [20],27%
same,reduction in C max by rifampin,[12]; [20],26%
same,AUCinf %GLSM ratio (90% CI),[12]; [21],"72.7 (69.1, 76.5) %"
same,AUClast %GLSM ratio (90% CI),[12]; [21],"72.7 (69.1, 76.5) %"
same,effect of rifampin on T max and t 1/2 (in words),"[12]; study 2, filgotinib: T max and t 1/2, GS‐829845: Tmax",similar
same,CL/F,"[12]; study 2, single filgotinib 200 mg alone, mean (%CV), N = 14",30.1 (21.0) L/h
same,inhibition of MATE2K (in words),MATE2K [13]; in vitro data,may inhibit
same,ratio of maximum unbound plasma concentration over in vitro IC50 against MATE2K,MATE2K [13]; patients with rheumatoid arthritis,0.44
same,metabolism by CES2 to form GS‐829845 (in words),[14],primarily metabolized
same,accumulation following multiple doses,[15],no accumulation
same,time to steady‐state concentrations,[15],~ 2 days
same,linearity of pharmacokinetics,"[15]; from 50 to 200 mg, dose proportional and time‐independent",linear
same,signs and symptoms and physical function,[16],significantly improved
same,tolerability (in words),"Safety assessments; all three studies, alone or with the co‐administered drugs",generally well‐tolerated
same,subjects with AEs,"Safety assessments; study 1, by treatment period, all grade 1, not related to study drug",7.7%
same,subjects with at least one graded laboratory abnormality,"Safety assessments; study 1, by treatment period",15%
same,subjects with at least one graded laboratory abnormality,"Safety assessments; study 2, by treatment period",14%
same,subjects with AEs,"Safety assessments; study 3, by treatment period, all grade 1",8.3%
same,subjects with grade 3 decreased lymphocytes and neutrophils,Safety assessments; [22],8.3%
same,subjects with grade 3 laboratory abnormalities,Safety assessments; [22],25%
same,subjects with grade 3 occult blood in urine,Safety assessments; [22],17%
same,subjects with at least one graded laboratory abnormality,Safety assessments; [22],75%
same,AE considered related to study drug (kind of AE),"Safety assessments; study 3, one subject, by treatment phase",headache
same,"potency on JAK1 over JAK2, JAK3, tyrosine kinase 2, and other kinases",JAK1,greater than five‐fold higher potency
same,inhibition of organic cation transporter 1,[17],not inhibitors
